Patent US20240043400A1, “Octahydroisoquinolinyl Derivatives” (UCB Biopharma SRL, priority 2020, published 2024)

Legend:
dopamine D1 receptor = target: T1, dopamine D1 receptor (Homo sapiens, UniProt P21728); experiment: cAMP HTRF potentiation assay (in the presence of dopamine); format: cell-based; conditions: potentiation of cAMP with [EC20] of dopamine (1.1 nM); LMtk (Ltk−) mouse fibroblast cells expressing the dopamine D1 receptor
T1 construct: host or cells: LMtk (Ltk-) mouse fibroblast cells, kept under Geneticin
T1 sequence (P21728 whole entry): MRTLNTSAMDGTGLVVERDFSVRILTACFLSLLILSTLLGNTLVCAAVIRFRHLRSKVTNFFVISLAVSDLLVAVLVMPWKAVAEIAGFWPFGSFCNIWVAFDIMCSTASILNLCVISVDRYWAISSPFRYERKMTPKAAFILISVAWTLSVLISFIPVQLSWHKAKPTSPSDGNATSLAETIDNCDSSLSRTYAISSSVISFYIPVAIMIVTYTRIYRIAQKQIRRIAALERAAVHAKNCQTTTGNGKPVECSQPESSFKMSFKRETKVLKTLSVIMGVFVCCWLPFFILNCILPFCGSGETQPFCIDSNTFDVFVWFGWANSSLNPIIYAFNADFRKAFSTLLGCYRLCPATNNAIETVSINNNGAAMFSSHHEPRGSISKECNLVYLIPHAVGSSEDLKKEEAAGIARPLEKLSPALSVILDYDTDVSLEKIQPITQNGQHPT
Procedure: The potentiation assay measures the ability of compounds to increase the levels of cAMP produced by a low-threshold concentration of dopamine. The concentration of dopamine used ([EC20]) is designed to produce 20% stimulation compared to the maximal response (100%) seen with increasing the concentration of dopamine. To measure this potentiation we incubate increasing concentrations of the compound with the [EC20] of dopamine and measure the potentiation as increases in cAMP production. The pEC50 of a compound is the −log 10 of the concentration of the compound which produces 50% of the potentiation of the cAMP levels and the Erel is the relative efficacy, defined as the maximal % potentiation produced by the compound compared to the maximal response produced by increasing concentrations of dopamine (Erel of 1=dopamine maximum response).
Cells were cultured at 37° C. in a humidified atmosphere of 5% CO2. Cells were grown in DMEM-F12+GlutaMAX™-1 medium (GIBCO®, Invitrogen, Merelbeke, Belgium) containing 10% fetal bovine serum (BioWhittaker®, Lonza, Verviers, Belgium), 400 μg/mL Geneticin (GIBCO®), 100 IU/mL Penicillin and 100 IU/mL Streptomycin (Pen-Strep solution, BioWhittaker®).
The measurement of changes in intracellular cyclic adenosinemonophopshpate (cAMP) was determined using the HTRF cAMP dynamic assay kit from CisBio (Codolet, France). Using homogenous time-resolved fluoresence technology, the assay is based on competition between native cAMP produced by cells and cAMP labelled with the dye d2. The tracer binding is determined by an anti-cAMP antibody labeled with cryptate. The effects of the compound alone (agonism) was determined by performing the assay in the absence of dopamine, whilst the effect of the compound as a positive allosteric modulator (PAM) was determined in the presence of an EC20 concentration of dopamine. Cells (20,000 per well) are incubated in 384 plates for 1 h at rt in a final volume of 20 μLHBSS (Lonza, with calcium, magnesium and HEPES buffer 20 mM, pH 7.4) containing: isobutyl methylxanthine (Sigma, 0.1 mM final), varying concentrations of test compound (typically 10^−9.5 M to 10^−4.5 M) in the presence and absence of dopamine (1.1 nM final). The reaction is then terminated and the cells lysed by adding the d2 detection reagent in lysis buffer (10 μL) and the cryptate reagent in lysis buffer (10 μL) according to manufacturer's instructions. This is then incubated for a further 60 min at rt and changes in HTRF fluorescent emission ratio determined according to manufacturer's instructions using an Envision plate reader (Perkin Elmer, Zaventem, Belgium) with laser excitation. All incubations were performed in duplicate and results were compared to a concentration-effect curve to dopamine. (10^−11 M to 10^−6 M).
Data was analyzed using Excel and PRISM (GraphPad Software) to obtain pEC50 and Erel using the 4-parameter logistic equation (DeLean et al, 1978) where Erel is the fitted maximal response of the test compound minus basal expressed as a percentage relative to that obtained with dopamine which was defined as 100%.

[1] = target: T2, human GABAA receptor α1β2 and γ2 subunits (Homo sapiens, UniProt P14867+P18507+P47870); experiment: Automated patch clamp studies on the GABAA receptor cells; format: cell-based; conditions: 10 μM compound; 15 μM GABA; CHO-K1 cells; Table B
T2 construct: expressed in transfected cells
T2 sequence (P14867 28-456): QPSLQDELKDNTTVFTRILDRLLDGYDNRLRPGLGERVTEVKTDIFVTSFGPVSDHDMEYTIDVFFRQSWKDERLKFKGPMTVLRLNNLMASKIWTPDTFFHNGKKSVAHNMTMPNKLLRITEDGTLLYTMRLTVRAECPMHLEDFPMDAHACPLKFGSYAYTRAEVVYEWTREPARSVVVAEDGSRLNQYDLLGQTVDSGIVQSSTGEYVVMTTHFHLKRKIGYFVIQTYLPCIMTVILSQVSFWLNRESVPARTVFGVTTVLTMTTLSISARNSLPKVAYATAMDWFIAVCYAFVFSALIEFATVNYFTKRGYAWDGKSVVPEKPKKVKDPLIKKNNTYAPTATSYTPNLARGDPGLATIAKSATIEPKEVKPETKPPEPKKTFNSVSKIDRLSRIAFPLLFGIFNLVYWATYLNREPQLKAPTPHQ
T2 sequence (P47870 25-512 limits assumed): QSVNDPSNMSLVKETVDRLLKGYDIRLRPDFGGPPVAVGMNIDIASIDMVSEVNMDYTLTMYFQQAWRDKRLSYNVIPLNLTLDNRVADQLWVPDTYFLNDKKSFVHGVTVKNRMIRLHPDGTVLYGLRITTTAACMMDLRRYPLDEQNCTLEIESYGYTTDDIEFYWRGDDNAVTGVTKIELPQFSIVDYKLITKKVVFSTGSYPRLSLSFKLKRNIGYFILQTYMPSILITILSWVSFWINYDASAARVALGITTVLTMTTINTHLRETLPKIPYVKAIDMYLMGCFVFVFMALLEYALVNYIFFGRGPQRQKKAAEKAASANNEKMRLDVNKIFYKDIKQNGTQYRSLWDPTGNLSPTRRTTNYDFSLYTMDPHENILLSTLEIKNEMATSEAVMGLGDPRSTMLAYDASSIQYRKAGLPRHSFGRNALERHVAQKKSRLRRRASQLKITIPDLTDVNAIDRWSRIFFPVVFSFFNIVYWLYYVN
T2 sequence (P18507 40-475): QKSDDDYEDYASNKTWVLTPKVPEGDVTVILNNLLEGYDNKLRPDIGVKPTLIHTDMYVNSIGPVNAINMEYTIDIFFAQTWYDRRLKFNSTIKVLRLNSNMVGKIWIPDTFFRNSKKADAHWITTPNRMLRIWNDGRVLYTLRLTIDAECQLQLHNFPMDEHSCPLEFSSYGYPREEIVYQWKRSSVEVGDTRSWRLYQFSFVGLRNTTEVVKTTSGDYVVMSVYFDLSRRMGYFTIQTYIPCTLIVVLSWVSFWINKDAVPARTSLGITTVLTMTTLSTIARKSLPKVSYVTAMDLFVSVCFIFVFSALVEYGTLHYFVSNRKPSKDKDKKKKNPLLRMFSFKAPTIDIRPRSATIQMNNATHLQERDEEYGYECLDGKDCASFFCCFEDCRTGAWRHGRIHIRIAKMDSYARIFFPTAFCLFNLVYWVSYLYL
Procedure: CHO-K1 cells stably expressing human GABAA receptor α1β2 and γ2 subunits were used. The cells were harvested using trypsin and maintained in serum-free medium at room temperature. The cells were washed and re-suspended in extracellular solution before testing.
Experiments on human GABAA (α1β2γ2) channels were conducted using an automated patch clamp assay (lonFlux™ HT). The external solution for recording GABAA currents was composed of sodium chloride 137 mM, potassium chloride 4 mM, calcium chloride 1.8 mM, magnesium chloride 1 mM, HEPES 10 mM, and glucose 10 mM. Both external and internal solutions were titrated with NaOH or KOH to obtain a pH of 7.35 and 7.3, respectively. The internal pipette solution contained potassium fluoride 70 mM, potassium chloride 60 mM, sodium chloride 70 mM, HEPES 5 mM, EGTA 5 mM, and Magnesium ATP 4 mM. The final concentration of vehicle used to dilute compounds was 0.33% DMSO in each well. Bicuculline (0.032 to 100 μM) was used as positive control inhibitor. GABA (15 μM) was used as agonist. All recordings were obtained from a holding potential of −60 mV.
The compound addition sequence was the following: one addition of the EC80 concentration of GABA was added to establish baseline response. Each concentration of compound was applied for 30 seconds followed by the addition of 15 μM GABA in the presence of the compound for 2 seconds. The process was repeated with the next ascending concentration of compound. Peak inward currents in response to the GABA additions in the presence of a single concentration of compound were measured. All compound data have been normalized to the baseline peak current induced by addition of 15 μM GABA for 2 seconds.

CYP3A4 = target: T3, CYP3A4 (Homo sapiens, UniProt P08684); experiment: In vitro assessment of CYP3A4 inhibition potential using cryopreserved human microsomes; format: in vitro ADME; conditions: human, cryopreserved human microsomes (pooled donors), probe midazolam 2.5 μM (1-hydroxymidazolam formation), 20 μM compound, human microsomes 0.25 mg/ml, Table C
T3 construct: cryopreserved human microsomes (pooled donors); from tissue
T3 sequence (P08684 whole entry): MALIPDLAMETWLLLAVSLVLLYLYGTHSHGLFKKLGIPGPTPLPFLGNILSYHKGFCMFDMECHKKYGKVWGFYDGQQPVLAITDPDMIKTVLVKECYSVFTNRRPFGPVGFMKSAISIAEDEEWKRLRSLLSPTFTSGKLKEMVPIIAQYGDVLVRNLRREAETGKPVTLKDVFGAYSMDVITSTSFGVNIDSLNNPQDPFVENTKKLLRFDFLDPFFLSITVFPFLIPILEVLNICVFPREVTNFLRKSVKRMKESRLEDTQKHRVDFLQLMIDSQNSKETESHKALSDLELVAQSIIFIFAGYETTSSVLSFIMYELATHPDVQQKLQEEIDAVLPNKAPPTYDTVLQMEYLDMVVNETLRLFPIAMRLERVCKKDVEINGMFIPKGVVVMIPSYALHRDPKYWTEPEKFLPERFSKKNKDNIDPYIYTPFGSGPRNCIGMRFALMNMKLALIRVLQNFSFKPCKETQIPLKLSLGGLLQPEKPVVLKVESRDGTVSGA
Procedure: The objective of the human microsome assay is to characterize the inhibition potential of Compound of formula (I) by measuring the CYP3A4 activities after its co-incubation with midazolam, a specific CYP3A4 substrate.
To this aim, cryopreserved human microsomes (pooled donors) are divided on a 48 well collagen coated plate so that the final concentration is 0.25 mg/ml. The UCB compound is then added in the wells at 20 μM concentration in duplicate. After 30 min incubation, midazolam is added at 2.5 μM concentration. After 15 min, an aliquot is removed and placed into an equal volume of methanol containing internal standard. The samples are centrifuged at 2500 rpm at 4° C. for 20 min. An aliquot of supernatant is diluted with deionised water and levels of 1-hydroxymidazolam is quantified using generic LC MS/MS methods.
The concentrations are compared to those obtained after midazolam incubation at the same concentration but without UCB compound pre-incubation. The results are expressed as % of inhibition.

| SMILES | EC50 (dopamine D1 receptor) [nM] | % GABAA inhibition [1] [%] | inhibition at 15 min, 20 μM (CYP3A4) [%] |
| --- | --- | --- | --- |
| COc1ccc(C#N)c(CC(=O)N2CC[C@H]3[C@H](CCC(C)(C)O)CCC[C@@H]3[C@@H]2C)c1Cl [Example 21, 2-[2-[(1S,4aS,5S,8aS)-5-(3-hydroxy-3-methyl-butyl)-1-methyl-3,4,4a,5,6,7,8,8a-octahydro-1H-isoquinolin-2-yl]-2-oxo-ethyl]-3-chloro-4-methoxy-benzonitrile] | 50.1 | – | – |
| C[C@H]1[C@H]2CCC[C@@H](CCC(C)(C)O)[C@@H]2CCN1C(=O)Cc1c(Cl)ccc2c1c(Cl)nn2C [Example 22, 1-[(1S,4aS,5S,8aS)-5-(3-hydroxy-3-methyl-butyl)-1-methyl-3,4,4a,5,6,7,8,8a-octahydro-1H-isoquinolin-2-yl]-2-(3,5-dichloro-1-methyl-indazol-4-yl)ethanone] | 200 | – | – |
| COc1ccc(C#N)c(CC(=O)N2CC[C@H]3C(C#CC(C)(C)O)CCC[C@@H]3[C@@H]2C)c1Cl (stereo partly drawn) [Example 20, 2-[2-[(1S,4aS,8aS)-5-(3-hydroxy-3-methyl-but-1-ynyl)-1-methyl-3,4,4a,5,6,7,8,8a-octahydro-1H-isoquinolin-2-yl]-2-oxo-ethyl]-3-chloro-4-methoxy-benzonitrile] | 158 | – | – |
| C[C@H]1[C@@H]2CCC[C@H]([C@H](O)C(F)(F)F)[C@H]2C[C@H](CO)N1C(=O)Cc1c(Cl)ccc2c1c(Cl)nn2C [Example 26-B, 1-[(1S,3R,4aS,5S,8aR)-3-(hydroxymethyl)-1-methyl-5-[(1S)-2,2,2-trifluoro-1-hydroxy-ethyl]-3,4,4a,5,6,7,8,8a-octahydro-1H-isoquinolin-2-yl]-2-(3,5-dichloro-1-methyl-indazol-4-yl)ethanone] | 50.1 | – | – |
| CC(O)c1ncc(Cl)c(CC(=O)N2CC[C@H]3[C@H](CCC(C)(C)O)CCC[C@@H]3[C@@H]2C)c1Cl (single isomer, unassigned) [Example 24-B] | 39.8 | – | – |
| CC(O)c1ncc(Cl)c(CC(=O)N2CC[C@@H]3[C@H](CCC[C@H]3[C@](C)(O)C(F)F)[C@@H]2C)c1Cl (single isomer, unassigned) [Example 18-B] | 158 | – | – |
| CC(O)c1ncc(Cl)c(CC(=O)N2CC[C@@H]3[C@H](CCC[C@H]3[C@](C)(O)C(F)F)[C@@H]2C)c1Cl (single isomer, unassigned) [Example 18-A] | 200 | – | – |
| CC(O)c1ncc(Cl)c(CC(=O)N2CC[C@H]3[C@H](CCC(C)(C)O)CCC[C@@H]3[C@@H]2C)c1Cl (single isomer, unassigned) [Example 24-A] | 79.4 | – | – |
| C[C@H]1[C@H]2CCC[C@@H]([C@H](O)C(F)(F)F)[C@@H]2CCN1C(=O)Cc1c(Cl)ccc(OC(F)F)c1Cl [Example 19, 1-[(1 S,4aR,5R,8aS)-1-methyl-5-[(1 S)-2,2,2-trifluoro-1-hydroxy-ethyl]-3,4,4a,5,6,7,8,8a-octahydro-1H-isoquinolin-2-yl]-2-[2,6-dichloro-3-(difluoromethoxy)phenyl]ethanone] | 200 | – | – |
| CC(O)c1ncc(Cl)c(CC(=O)N2CC[C@H]3[C@H]([C@H](O)C(F)F)CCC[C@@H]3[C@@H]2C)c1Cl (single isomer, unassigned) [Example 17-A] | 158 | – | – |

Continued by falling EC50 (dopamine D1 receptor), values first:

| EC50 (dopamine D1 receptor) [nM] | % GABAA inhibition [1] [%] | inhibition at 15 min, 20 μM (CYP3A4) [%] | SMILES |
| --- | --- | --- | --- |
| 3160 | – | – | C[C@H]1[C@H]2CCC[C@@H]([C@H](O)C(F)(F)F)[C@@H]2C[C@H](CO)N1C(=O)Cc1c(Cl)ccc2c1c(Cl)nn2C [Example 26-A, 1-[(1S,3R,4aR,5R,8aS)-3-(hydroxymethyl)-1-methyl-5-[(1S)-2,2,2-trifluoro-1-hydroxy-ethyl]-3,4,4a,5,6,7,8,8a-octahydro-1H-isoquinolin-2-yl]-2-(3,5-dichloro-1-methyl-indazol-4-yl)ethanone] |
| 794 | 1.4 | – | COc1ccc(C#N)c(CC(=O)N2CC[C@@H]3[C@H](CCC[C@H]3C(C)(O)C(F)(F)F)[C@@H]2C)c1Cl (single isomer, unassigned) [Example 7-B] |
| 631 | – | – | COc1ccc(C#N)c(CC(=O)N2CC[C@@H]3[C@H](CCC[C@H]3c3cn[nH]n3)[C@@H]2C)c1Cl [Example 25, 2-[2-[(1S,4aR,5R,8aS)-1-methyl-5-(2H-triazol-4-yl)-3,4,4a,5,6,7,8,8a-octahydro-1H-isoquinolin-2-yl]-2-oxoethyl]-3-chloro-4-methoxybenzonitrile] |
| 251 | – | – | C[C@H]1[C@H]2CCC[C@@H]([C@H](O)C(F)(F)F)[C@@H]2CCN1C(=O)Cc1c(Cl)ccc2c1c(Cl)cn2C [Example 27, 1-[(1 S,4aR,5R,8aS)-1-methyl-5-[(1 S)-2,2,2-trifluoro-1-hydroxy-ethyl]-3,4,4a,5,6,7,8,8a-octahydro-1H-isoquinolin-2-yl]-2-(3,5-dichloro-1-methyl-indol-4-yl)ethanone] |
| 126 | – | – | CC(O)c1ncc(Cl)c(CC(=O)N2CC[C@H]3[C@H]([C@H](O)C(F)F)CCC[C@@H]3[C@@H]2C)c1Cl (single isomer, unassigned) [Example 17-B] |
| 79.4 | – | – | C[C@H]1[C@H]2CCC[C@@H]([C@@H](O)C(F)(F)F)[C@@H]2CCN1C(=O)Cc1c(Cl)cnc(C(C)(O)C(F)F)c1Cl (single isomer, unassigned) [Example 16-B] |
| 50.1 | – | – | C[C@H]1[C@H]2CCC[C@@H](CCC(C)(C)O)[C@@H]2CCN1C(=O)Cc1c(Cl)cnc(CO)c1Cl [Example 23, 1-[(1S,4aS,5S,8aS)-5-(3-hydroxy-3-methyl-butyl)-1-methyl-3,4,4a,5,6,7,8,8a-octahydro-1H-isoquinolin-2-yl]-2-[3,5-dichloro-2-(hydroxymethyl)-4-pyridyl]ethanone] |
| 39.8 | – | ≤ 20 | C[C@H]1[C@H]2CCC[C@@H]([C@H](O)C(F)(F)F)[C@@H]2CCN1C(=O)Cc1c(Cl)cnc(C(O)C(F)F)c1Cl (single isomer, unassigned) [Example 15-A] |
| 25.1 | – | – | C[C@H]1[C@H]2CCC[C@@H]([C@H](O)C(F)(F)F)[C@@H]2CCN1C(=O)Cc1c(Cl)cnc(C(O)C(F)F)c1Cl (single isomer, unassigned) [Example 15-B] |
